Experimental data: the NIST ThermoML archive (doi:10.1021/je060054+)
± gives the expanded uncertainty stated by the source.

assay: refractive index (Na D-line) (dimensionless); settings: 298.15 K; 101.33 kPa; Liquid; Standard Abbe refractometry

Row | refractive index | Compound
1 | 1.36978 ± 0.00072 | CCOC(C)=O [ethyl acetate]
2 | 1.3325 ± 0.00072 | O [water]
3 | 1.35941 ± 0.00073 | CCO [ethanol]
4 | 1.4077 ± 0.00073 | CCCCCO [pentan-1-ol]
